Reference: patent US7947666B2, “2-methylene-(20S,25S)-19,26-dinor-vitamin D analogs” (Wisconsin Alumni Research Foundation, priority 2007, dated 2011)
Read-outs that look alike come from different tables or passages of the source.

Experiments:
HL-60 cells = test: HL-60 differentiation (nitro blue tetrazolium reduction); format: cell-based, human; conditions: 4 days, NBT reduction, FIG. 2, read-out: EC50, HL-60 cell differentiation
Method: The study drugs were dissolved in ethanol and the concentrations determined using UV spectrophotometry. Serial dilutions were prepared so that a range of drug concentrations could be tested without changing the final concentration of ethanol (≦0.2%) present in the cell cultures.
Human promyelocytic leukemia (HL60) cells were grown in RPMI-1640 medium containing 10% fetal bovine serum. The cells were incubated at 37° C. in the presence of 5% CO2.
HL60 cells were plated at 1.2×10^5 cells/ml. Eighteen hours after plating, cells in duplicate were treated with drug. Four days later, the cells were harvested and a nitro blue tetrazolium reduction assay was performed (Collins et al., 1979; J. Exp. Med. 149:969-974). The percentage of differentiated cells was determined by counting a total of 200 cells and recording the number that contained intracellular black-blue formazan deposits. Verification of differentiation to monocytic cells was determined by measuring phagocytic activity (data not shown).

vitamin D-deficient rats [1] = test: Bone calcium mobilization (serum calcium); format: in vivo, rat; conditions: for bone calcium mobilization (serum calcium levels): all dosages / overall, FIGS. 4A and 4B; for bone calcium mobilization (serum calcium): rats on low calcium diet (0.02%)
Method: (§1) Male, weanling Sprague-Dawley rats were placed on Diet 11 (0.47% Ca) diet +AEK oil for one week followed by Diet 11 (0.02% Ca) +AEK oil for 3 weeks. The rats were then switched to a diet containing 0.47% Ca for one week followed by two weeks on a diet containing 0.02% Ca. Dose administration began during the last week on 0.02% calcium diet. Four consecutive ip doses were given approximately 24 hours apart. Twenty-four hours after the last dose, blood was collected from the severed neck and the concentration of serum calcium determined as a measure of bone calcium mobilization. The first 10 cm of the intestine was also collected for intestinal calcium transport analysis using the everted gut sac method.
Calcium mobilization from bone and intestinal calcium absorption in vitamin D-deficient animals.

vitamin D-deficient rats [2] = test: Intestinal calcium transport, everted gut sac method; format: in vivo, rat; conditions: for intestinal calcium transport: everted gut sac
Method: as §1
Intestinal calcium transport was evaluated in the same groups of animals using the everted gut sac method (FIGS. 5A and 5B).

[3] = system: 24-hydroxylase (24Ohase) gene promoter; test: In vitro transcription assay, luciferase reporter in ROS 17/2.8 (bone) cells; format: cell-based; conditions: ROS 17/2.8 cells, 24-hydroxylase promoter luciferase, 16 h; FIG. 3; read-out: EC50, transcriptional activity in bone cells
Method: Transcription activity was measured in ROS 17/2.8 (bone) cells that were stably transfected with a 24-hydroxylase (24Ohase) gene promoter upstream of a luciferase reporter gene (Arbour et al., 1998). Cells were given a range of doses. Sixteen hours after dosing the cells were harvested and luciferase activities were measured using a luminometer.
RLU=relative luciferase units.

[4] = 260 pmol/day ip for 4 consecutive days
[5] = 7020 pmol/day ip for 4 consecutive days

EC50 (HL-60 cells; Homo sapiens, 96 h) [pM] | EC50 [3] [pM] | SMILES | EC50 (HL-60 cells) [pM] | bone calcium mobilization (serum calcium levels) (vitamin D-deficient rats [1]) | intestinal calcium transport (vitamin D-deficient rats [2]; [4]) | bone calcium mobilization (serum calcium) (vitamin D-deficient rats [1]; [4]) | bone calcium mobilization (serum calcium) (vitamin D-deficient rats [1]; [5]) | times less potent than the native hormone in mobilizing bone calcium store (vitamin D-deficient rats [1]; rats, compared to 1,25(OH)2D3, same increase in serum calcium) | intestinal calcium transport (vitamin D-deficient rats [2]; [5]) | intestinal calcium transport activity compared to 1,25(OH)2D3 (vitamin D-deficient rats [2]; overall, FIGS. 5A and 5B, two batches of rats)
– | – | C=C1/C(=C\C=C2/CCC[C@]3(C)[C@@H]([C@H](C)CCCC(C)(C)O)CC[C@@H]23)C[C@@H](O)C[C@@H]1O [1,25(OH)2D3, 1α,25-dihydroxyvitamin D3, reference compound] | 2000 | increased serum calcium levels at all dosages | promotes a significant increase | – | – | – | – | –
500 | 30 | C=C1[C@H](O)CC(=C/C=C2\CCC[C@@]3(C)C2CC[C@@H]3[C@@H](C)CCC[C@H](C)O)C[C@H]1O (stereo partly drawn) [A4, 2-methylene-(20S,25S)-19,26-dinor-1α,25-dihydroxyvitamin D3] | – | very little bone calcium mobilization activity | promotes intestinal calcium transport only slightly | did not result in mobilization of bone calcium | without any substantial effect | approximately 100 times | significant intestinal calcium transport activity | very little activity
